# Values of other authors as cited in patent EP0279778B1, “New strain belonging to genus Thermus, new beta-galactosidase and process for producing same” (Research Development Corporation of Japan, priority 1987, dated 1988).
# How the values were obtained:
# [1] = system: Thermus strain 4-1A β-galactosidase (Enzyme of Precedent 3); settings: 56mM
# [2] = system: Bacillus stearothermophilus β-galactosidase (Enzyme of Precedent 5); settings: 10mM
SMILES,Inhibition by reaction product [1],Inhibition by reaction product [2]
OC[C@H]1OC(O)[C@H](O)[C@@H](O)[C@H]1O (stereo partly shown) [galactose],52%,71%
OC[C@H]1OC(O)[C@H](O)[C@@H](O)[C@@H]1O (stereo partly shown) [glucose],63%,20%
